Experimental data: ChEMBL document CHEMBL5291721, “A preclinical secondary pharmacology resource illuminates target-adverse drug reaction associations of marketed drugs” (Nat Commun, 2023)

Tests used:
Androgen receptor = target: T1, Androgen receptor (Rattus norvegicus, UniProt P15207); format: functional
T1 sequence (P15207 whole entry): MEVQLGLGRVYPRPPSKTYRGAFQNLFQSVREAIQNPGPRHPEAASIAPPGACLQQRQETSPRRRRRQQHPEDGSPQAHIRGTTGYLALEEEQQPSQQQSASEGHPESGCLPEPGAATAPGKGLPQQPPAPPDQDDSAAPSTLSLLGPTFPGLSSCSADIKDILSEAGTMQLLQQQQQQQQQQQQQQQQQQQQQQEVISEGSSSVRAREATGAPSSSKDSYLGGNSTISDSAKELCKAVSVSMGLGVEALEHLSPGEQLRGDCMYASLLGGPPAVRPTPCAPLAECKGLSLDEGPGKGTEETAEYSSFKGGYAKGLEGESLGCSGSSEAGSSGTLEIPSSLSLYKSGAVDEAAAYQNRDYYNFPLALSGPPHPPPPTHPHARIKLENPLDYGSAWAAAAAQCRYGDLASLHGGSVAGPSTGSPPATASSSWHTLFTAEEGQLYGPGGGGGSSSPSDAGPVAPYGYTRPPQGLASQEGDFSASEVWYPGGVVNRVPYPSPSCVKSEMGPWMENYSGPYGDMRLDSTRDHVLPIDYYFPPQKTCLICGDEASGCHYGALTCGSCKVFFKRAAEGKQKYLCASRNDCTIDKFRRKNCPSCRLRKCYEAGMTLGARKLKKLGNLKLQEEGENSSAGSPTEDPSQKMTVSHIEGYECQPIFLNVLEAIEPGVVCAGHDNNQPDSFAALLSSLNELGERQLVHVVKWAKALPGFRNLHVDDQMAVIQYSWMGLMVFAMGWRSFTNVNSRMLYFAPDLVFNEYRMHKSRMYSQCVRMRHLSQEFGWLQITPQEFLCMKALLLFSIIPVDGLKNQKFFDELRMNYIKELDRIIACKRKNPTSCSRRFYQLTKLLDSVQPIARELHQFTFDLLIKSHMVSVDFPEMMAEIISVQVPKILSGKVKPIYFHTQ

Estrogen receptor = target: T2, Estrogen receptor (Homo sapiens, UniProt P03372); format: functional
T2 sequence (P03372 whole entry): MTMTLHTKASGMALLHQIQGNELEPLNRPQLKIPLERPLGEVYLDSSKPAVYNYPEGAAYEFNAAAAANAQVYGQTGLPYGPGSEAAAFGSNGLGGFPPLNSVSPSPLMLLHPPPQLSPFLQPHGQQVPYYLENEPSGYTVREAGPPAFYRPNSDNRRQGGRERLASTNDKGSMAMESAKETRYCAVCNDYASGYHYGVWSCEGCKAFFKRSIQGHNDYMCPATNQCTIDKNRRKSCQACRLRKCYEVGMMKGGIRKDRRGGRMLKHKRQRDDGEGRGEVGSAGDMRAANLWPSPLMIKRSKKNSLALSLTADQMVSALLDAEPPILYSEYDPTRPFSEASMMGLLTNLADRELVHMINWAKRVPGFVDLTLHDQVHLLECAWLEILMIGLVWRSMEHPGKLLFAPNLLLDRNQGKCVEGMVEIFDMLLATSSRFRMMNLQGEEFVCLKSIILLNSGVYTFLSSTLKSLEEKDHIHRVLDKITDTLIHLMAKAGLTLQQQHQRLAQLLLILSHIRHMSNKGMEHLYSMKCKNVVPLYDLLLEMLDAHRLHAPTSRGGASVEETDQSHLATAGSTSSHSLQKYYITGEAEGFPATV

Acetylcholinesterase = Acetylcholinesterase (Homo sapiens, UniProt P22303); format: functional
Sequence of Acetylcholinesterase (P22303 whole entry): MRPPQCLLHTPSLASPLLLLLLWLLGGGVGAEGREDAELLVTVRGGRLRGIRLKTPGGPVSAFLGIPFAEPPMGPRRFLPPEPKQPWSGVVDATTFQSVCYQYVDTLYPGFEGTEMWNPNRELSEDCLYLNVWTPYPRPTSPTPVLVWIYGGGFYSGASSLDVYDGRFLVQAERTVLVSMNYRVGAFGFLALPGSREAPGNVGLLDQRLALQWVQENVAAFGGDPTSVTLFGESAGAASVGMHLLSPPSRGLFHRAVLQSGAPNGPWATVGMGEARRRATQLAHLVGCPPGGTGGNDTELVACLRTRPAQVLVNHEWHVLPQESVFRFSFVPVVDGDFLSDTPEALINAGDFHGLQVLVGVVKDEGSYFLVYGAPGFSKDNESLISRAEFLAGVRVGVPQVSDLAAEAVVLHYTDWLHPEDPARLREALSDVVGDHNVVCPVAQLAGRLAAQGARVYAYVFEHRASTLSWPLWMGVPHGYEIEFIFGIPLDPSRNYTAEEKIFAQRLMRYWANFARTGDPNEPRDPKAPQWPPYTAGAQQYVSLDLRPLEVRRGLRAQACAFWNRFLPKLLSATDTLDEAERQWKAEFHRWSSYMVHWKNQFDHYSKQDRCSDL

Thromboxane A2 receptor [1] = target: T3, Thromboxane A2 receptor (Homo sapiens, UniProt P21731); format: functional
T3 sequence (P21731 whole entry): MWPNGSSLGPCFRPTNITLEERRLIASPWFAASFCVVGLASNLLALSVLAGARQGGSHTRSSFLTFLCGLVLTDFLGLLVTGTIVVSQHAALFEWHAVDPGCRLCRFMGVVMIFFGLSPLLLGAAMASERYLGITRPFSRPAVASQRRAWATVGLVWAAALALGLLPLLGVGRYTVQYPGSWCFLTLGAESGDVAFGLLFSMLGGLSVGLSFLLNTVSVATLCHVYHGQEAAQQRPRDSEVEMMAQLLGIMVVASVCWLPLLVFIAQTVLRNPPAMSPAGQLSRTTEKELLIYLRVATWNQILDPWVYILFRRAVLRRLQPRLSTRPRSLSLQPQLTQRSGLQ

Thromboxane A2 receptor [2] = target: T3, Thromboxane A2 receptor; format: functional, cell-based
[3] = target: 5-hydroxytryptamine receptor 7 (Homo sapiens, UniProt P34969)
Sequence of 5-hydroxytryptamine receptor 7 (P34969 whole entry): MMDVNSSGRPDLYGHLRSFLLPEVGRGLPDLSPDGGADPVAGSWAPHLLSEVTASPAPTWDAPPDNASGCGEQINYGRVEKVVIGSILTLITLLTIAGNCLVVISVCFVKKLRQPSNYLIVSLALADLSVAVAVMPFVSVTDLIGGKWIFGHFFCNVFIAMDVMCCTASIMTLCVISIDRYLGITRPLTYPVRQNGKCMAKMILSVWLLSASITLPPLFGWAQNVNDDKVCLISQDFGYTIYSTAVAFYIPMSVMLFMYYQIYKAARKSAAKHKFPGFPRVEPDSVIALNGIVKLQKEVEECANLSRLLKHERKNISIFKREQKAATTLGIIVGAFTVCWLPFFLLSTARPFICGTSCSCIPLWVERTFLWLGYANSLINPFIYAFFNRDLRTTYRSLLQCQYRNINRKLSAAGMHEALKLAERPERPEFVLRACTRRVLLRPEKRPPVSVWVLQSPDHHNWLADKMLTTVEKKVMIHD

[4] = target: 5-hydroxytryptamine receptor 6 (Homo sapiens, UniProt P50406)
Sequence of 5-hydroxytryptamine receptor 6 (P50406 whole entry): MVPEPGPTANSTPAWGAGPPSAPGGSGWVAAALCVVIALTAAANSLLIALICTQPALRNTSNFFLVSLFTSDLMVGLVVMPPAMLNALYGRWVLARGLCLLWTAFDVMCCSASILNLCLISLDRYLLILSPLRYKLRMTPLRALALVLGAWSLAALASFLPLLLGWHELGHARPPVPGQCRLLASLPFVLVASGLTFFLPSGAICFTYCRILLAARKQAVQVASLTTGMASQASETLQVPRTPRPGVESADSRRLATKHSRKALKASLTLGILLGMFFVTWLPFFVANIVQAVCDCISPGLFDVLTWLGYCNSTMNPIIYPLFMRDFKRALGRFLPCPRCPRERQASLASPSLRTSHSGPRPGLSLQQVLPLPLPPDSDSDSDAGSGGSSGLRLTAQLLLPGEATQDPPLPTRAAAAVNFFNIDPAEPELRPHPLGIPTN

[5] = target: Sodium channel protein type 5 subunit alpha (Homo sapiens, UniProt Q14524); format: functional, cell-based
Sequence of Sodium channel protein type 5 subunit alpha (Q14524 whole entry): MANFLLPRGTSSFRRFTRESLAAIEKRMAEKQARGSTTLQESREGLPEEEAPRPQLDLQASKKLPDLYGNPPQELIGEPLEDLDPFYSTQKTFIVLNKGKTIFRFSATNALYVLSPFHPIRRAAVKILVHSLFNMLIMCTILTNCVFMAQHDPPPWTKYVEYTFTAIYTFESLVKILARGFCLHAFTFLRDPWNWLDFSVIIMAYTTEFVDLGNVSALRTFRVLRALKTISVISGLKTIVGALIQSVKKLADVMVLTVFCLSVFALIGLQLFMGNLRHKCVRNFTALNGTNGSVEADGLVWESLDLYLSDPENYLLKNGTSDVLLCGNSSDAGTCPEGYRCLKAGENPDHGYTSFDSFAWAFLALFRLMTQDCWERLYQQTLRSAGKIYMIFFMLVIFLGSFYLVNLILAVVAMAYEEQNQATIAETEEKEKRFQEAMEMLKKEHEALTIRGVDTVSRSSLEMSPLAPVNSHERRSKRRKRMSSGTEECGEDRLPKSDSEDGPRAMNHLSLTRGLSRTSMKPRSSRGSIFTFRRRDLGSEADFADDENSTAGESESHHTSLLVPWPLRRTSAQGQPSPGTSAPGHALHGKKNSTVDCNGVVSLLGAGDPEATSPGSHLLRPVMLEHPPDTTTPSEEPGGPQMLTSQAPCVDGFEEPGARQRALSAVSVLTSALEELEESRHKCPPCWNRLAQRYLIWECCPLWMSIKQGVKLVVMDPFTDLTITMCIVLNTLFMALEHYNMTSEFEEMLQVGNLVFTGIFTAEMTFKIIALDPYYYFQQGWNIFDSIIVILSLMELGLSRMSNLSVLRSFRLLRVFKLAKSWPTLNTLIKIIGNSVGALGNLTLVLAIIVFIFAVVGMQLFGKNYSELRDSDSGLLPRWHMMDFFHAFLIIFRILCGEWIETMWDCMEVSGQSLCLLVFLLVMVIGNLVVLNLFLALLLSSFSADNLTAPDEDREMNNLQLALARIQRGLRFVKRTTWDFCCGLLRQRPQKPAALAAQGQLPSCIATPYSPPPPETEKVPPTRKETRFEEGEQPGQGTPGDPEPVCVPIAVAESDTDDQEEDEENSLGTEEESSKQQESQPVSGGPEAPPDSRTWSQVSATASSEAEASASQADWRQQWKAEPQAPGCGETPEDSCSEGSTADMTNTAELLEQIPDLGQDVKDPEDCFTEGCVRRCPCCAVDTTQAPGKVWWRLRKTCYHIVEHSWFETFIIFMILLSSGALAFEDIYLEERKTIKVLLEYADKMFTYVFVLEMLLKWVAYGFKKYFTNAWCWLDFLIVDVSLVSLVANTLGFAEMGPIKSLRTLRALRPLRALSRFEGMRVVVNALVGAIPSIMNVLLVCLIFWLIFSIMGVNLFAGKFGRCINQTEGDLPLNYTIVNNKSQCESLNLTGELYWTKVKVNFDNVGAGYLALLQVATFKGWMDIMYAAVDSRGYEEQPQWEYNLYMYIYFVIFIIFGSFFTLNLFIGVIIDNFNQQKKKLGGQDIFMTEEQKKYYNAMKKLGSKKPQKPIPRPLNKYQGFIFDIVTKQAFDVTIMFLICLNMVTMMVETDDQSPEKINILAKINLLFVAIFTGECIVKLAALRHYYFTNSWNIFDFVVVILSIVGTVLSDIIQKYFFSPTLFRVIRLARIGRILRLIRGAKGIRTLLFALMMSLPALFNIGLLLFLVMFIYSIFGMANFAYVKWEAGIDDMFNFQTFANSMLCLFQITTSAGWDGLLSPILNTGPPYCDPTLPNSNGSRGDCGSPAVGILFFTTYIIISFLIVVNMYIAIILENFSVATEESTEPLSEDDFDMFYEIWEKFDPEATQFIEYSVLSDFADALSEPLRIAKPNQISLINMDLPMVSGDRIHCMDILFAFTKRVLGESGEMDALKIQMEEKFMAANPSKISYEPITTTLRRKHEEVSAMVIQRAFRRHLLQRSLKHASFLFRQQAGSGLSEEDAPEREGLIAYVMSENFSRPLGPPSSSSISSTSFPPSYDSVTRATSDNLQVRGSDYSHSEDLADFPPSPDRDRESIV

Adenosine receptor A1 = target: T4, Adenosine receptor A1 (Homo sapiens, UniProt P30542)
T4 sequence (P30542 whole entry): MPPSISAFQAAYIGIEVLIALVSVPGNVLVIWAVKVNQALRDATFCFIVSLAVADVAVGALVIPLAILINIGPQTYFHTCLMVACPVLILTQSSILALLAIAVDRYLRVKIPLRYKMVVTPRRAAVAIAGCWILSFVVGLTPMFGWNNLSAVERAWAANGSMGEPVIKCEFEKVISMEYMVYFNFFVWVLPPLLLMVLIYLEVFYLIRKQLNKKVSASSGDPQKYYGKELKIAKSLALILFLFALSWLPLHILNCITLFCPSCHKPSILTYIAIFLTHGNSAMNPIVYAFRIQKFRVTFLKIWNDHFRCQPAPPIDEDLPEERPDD

Cannabinoid receptor 1 = Cannabinoid receptor 1 (Homo sapiens, UniProt P21554); format: functional
Sequence of Cannabinoid receptor 1 (P21554 whole entry): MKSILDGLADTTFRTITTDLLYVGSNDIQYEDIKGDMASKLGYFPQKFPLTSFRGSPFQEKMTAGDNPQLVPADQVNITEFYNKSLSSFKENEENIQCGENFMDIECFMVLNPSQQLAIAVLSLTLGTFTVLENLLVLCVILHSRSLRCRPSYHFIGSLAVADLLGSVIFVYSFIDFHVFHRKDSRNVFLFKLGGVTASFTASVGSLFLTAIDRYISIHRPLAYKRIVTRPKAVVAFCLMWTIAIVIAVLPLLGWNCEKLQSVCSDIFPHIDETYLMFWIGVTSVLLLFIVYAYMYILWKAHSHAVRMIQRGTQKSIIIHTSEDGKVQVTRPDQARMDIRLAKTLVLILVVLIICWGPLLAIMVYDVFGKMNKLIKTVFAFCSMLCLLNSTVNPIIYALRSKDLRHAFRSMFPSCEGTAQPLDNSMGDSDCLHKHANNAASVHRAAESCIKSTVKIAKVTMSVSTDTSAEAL

[6] = target: Gamma-aminobutyric acid type B receptor subunit 1 (Homo sapiens, UniProt Q9UBS5)
Sequence of Gamma-aminobutyric acid type B receptor subunit 1 (Q9UBS5 whole entry): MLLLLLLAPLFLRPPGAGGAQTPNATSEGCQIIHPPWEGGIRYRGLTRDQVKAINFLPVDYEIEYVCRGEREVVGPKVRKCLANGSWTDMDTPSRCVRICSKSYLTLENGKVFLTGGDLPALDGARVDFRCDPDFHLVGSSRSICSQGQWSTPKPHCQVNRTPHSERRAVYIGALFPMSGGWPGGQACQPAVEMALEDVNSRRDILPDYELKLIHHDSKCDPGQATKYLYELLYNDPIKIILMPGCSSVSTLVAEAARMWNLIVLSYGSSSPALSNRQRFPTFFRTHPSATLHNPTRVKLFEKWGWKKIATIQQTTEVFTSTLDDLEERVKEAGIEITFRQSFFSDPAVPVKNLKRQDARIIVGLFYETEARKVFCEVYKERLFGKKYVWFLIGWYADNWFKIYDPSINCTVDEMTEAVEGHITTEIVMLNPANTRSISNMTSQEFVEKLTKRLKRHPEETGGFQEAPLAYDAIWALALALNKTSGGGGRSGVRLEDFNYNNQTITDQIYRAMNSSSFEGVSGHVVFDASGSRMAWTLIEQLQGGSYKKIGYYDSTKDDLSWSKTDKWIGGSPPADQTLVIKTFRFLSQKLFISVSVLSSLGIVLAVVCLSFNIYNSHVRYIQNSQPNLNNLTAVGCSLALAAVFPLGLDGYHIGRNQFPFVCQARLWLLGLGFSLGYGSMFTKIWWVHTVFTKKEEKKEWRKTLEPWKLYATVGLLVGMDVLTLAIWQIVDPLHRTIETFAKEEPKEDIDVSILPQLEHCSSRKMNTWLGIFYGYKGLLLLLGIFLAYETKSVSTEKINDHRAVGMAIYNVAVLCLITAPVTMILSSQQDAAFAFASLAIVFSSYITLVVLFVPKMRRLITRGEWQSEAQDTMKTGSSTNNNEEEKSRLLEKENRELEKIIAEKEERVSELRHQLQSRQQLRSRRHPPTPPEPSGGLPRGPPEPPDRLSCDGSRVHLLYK
Note: assay procedure not described here.

| SMILES | AC50 (Androgen receptor) | AC50 (Estrogen receptor) | AC50 (Acetylcholinesterase) | AC50 (Thromboxane A2 receptor [1]) | AC50 (Thromboxane A2 receptor [2]) | also measured |
| --- | --- | --- | --- | --- | --- | --- |
| C1CCC(C(CC2CCCCN2)C2CCCCC2)CC1 (stereo unspecified) [PERHEXILINE] | > 30 µM | > 30 µM | – | – | – | – |
| CNC1Cc2ccccc2N(C)c2ccccc21 (stereo unspecified) [METAPRAMINE] | > 30 µM | > 30 µM | > 30 µM | > 30 µM | > 30 µM | – |
| Cc1c(C(=O)NN2CCCCC2)nn(-c2ccc(Cl)cc2Cl)c1-c1ccc(Cl)cc1 [RIMONABANT] | > 30 µM | > 10 µM | > 30 µM | > 30 µM | > 30 µM | AC50 [3]: > 10 µM; AC50 [4]: > 10 µM |
| c1ccc([C@H]2CN3CCSC3=N2)cc1 [LEVAMISOLE] | – | > 30 µM | > 30 µM | > 30 µM | > 30 µM | AC50 [5]: > 50 µM |
| CN(C)CCC=C1c2ccccc2C(C)(C)c2ccccc21 | – | > 30 µM | – | – | – | – |
| C[C@H]1CNCCc2ccc(Cl)cc21 [LORCASERIN] | – | > 30 µM | – | – | – | – |
| C=CCc1ccccc1OCC(O)CNC(C)C (stereo unspecified) [ALPRENOLOL] | > 30 µM | – | – | – | – | – |
| Cc1cc(C#N)cc(C)c1Oc1nc(Nc2ccc(C#N)cc2)nc(N)c1Br [ETRAVIRINE] | – | – | – | – | – | AC50 (Adenosine receptor A1): 22.5 µM |
| N[C@@H]1[C@H]2CN(c3nc4c(cc3F)c(=O)c(C(=O)O)cn4-c3ccc(F)cc3F)C[C@@H]12 [TROVAFLOXACIN] | > 30 µM | > 30 µM | > 30 µM | > 30 µM | > 30 µM | – |
| CC(=O)Nc1ccc(O)cc1 [ACETAMINOPHEN] | > 30 µM | – | – | – | – | – |
| CCOC(=O)[C@H](CCc1ccccc1)N[C@@H](C)C(=O)N1[C@H](C(=O)O)C[C@H]2CCCC[C@@H]21 [TRANDOLAPRIL] | – | – | – | – | – | AC50 (Adenosine receptor A1): > 30 µM |
| O=C(O[C@H]1C[C@H]2CC[C@@H](C1)[N+]21CCCC1)C(O)(c1ccccc1)c1ccccc1 [TROSPIUM] | > 30 µM | – | – | – | – | – |
| NCC(CC(=O)O)c1ccc(Cl)cc1 (stereo unspecified) [BACLOFEN] | – | – | > 30 µM | > 30 µM | > 30 µM | AC50 [3]: > 10 µM; AC50 (Cannabinoid receptor 1): > 10 µM; AC50 [4]: > 10 µM |
| Cc1cn([C@H]2C=C[C@@H](CO)O2)c(=O)[nH]c1=O [STAVUDINE] | – | – | – | > 30 µM | > 30 µM | AC50 [6]: > 10 µM; AC50 [3]: > 10 µM; AC50 (Cannabinoid receptor 1): > 10 µM; AC50 (Adenosine receptor A1): > 30 µM; AC50 [4]: > 10 µM |
| C[C@@H](O)[C@H]1C(=O)N2C(C(=O)O)=C(S[C@@H]3CN[C@H](C(=O)N(C)C)C3)[C@H](C)[C@H]12 [MEROPENEM] | – | – | > 300 µM | > 300 µM | > 300 µM | – |
| CCCCCCOc1nsnc1C1=CCCN(C)C1 [XANOMELINE] | – | – | – | – | – | AC50 [5]: 19 µM |
| COc1ccc(CC(C)(C)NC[C@H](O)c2cc(O)cc3c2OCC(=O)N3)cc1 [OLODATEROL] | > 30 µM | > 30 µM | > 30 µM | – | – | AC50 [5]: > 50 µM |
| Cc1ccc(-c2cc(C(F)(F)F)nn2-c2ccc(S(N)(=O)=O)cc2)cc1 [CELECOXIB] | – | – | – | – | – | AC50 [6]: > 10 µM; AC50 [3]: > 10 µM; AC50 (Cannabinoid receptor 1): > 10 µM; AC50 [4]: > 10 µM |
